Measured values from PMC10382584, “Macrocyclization of linear molecules by deep learning to facilitate macrocyclic drug candidates discovery” (Nature Communications, 2023).
Several values for one entry are separate records, joined by “and”; a condition that tells them apart may be missing. Equal values may be shown once. Read-outs that look alike come from different tables or passages of the source.

Legend:
[1] = system: HEL cells; assay: Cell proliferation assay (CCK-8), HEL cells; assay type: cell-based, human; settings: for Inhibition (%): single wells, replicates 1 and 2
Method: (§1) The human erythroid leukemia (HEL 92.1.7) cells were purchased from the American Type Culture Collection (ATCC, TIB-180), and the human megakaryoblastic (SET2) cells were obtained from German Collection of Microorganisms and Cell Cultures (DSMZ, ACC 608). The anti-proliferative activities of compounds were evaluated using WST-8 cell counting kit-8 (Elabscience). HEL and SET-2 cells were seeded at 5000 cells/well in 70 μL RPMI-1640 medium (Hyclon) with 10% FBS (Gibco) to the 96-well plate and incubated overnight at 37 °C with 5% CO2. The compounds were serially diluted in RPMI-1640 medium, and cells were treated separately with 30 μL various concentrations of compounds for 72 h. The final DMSO concentration in the culture wells was 0.1%, which had no effect on the cell viability. Finally, 10 μL of CCK-8 solution was added into the wells. 4 h later, the absorbance values at 450 nm were recorded. IC50 values were determined using GraphPad Prism v8.3.0, and three parallel experiments were performed.

[2] = system: JAK2-STAT signaling pathways in HEL cells; assay: Western blot analysis of JAK2-STAT signaling in HEL cells; assay type: cell-based, human; settings: 0.3-10 μM, 0.5 h
Method: HEL cells were added into six-well plates (2 × 10^6 cells/well) and then put into the incubator (37 °C, 5% CO2). After 24 h, the tested compounds were diluted in RPMI-1640 medium (final DMSO concentration = 0.1%) with different concentrations (0 μM, 0.3 μM, 1 μM, 3 μM, and 10 μM) was added separately into the wells, and incubated for another 0.5 h, then cells were collected and lysed. Proteins from each sample were isolated by SDS-PAGE and transferred to PVDF membrane. The membranes were blocked in 5% milk (TBST) for 1 h at room temperature, and subsequently incubated with the indicated primary antibody in blocking buffer overnight at 4 °C. Primary antibodies were used as follows: p-Y1007/8-JAK2 (#3771, CST, 1:1000), p-Y221-JAK2 (#11150, SAB, 1:500), p-Y705-STAT3 (#11045, SAB, 1:1000), p-Y694-STAT5 (#13386, SAB, 1:2000), STAT3 (10253-2-AP, Proteintech, 1:4000), STAT5 (12071-1-AP, Proteintech, 1:4000), JAK2 (E-AB-70193, Elabscience, 1:2000) and β-Actin (E-AB-20034, Elabscience, 1:10000). Then the membranes were washed with TBST (3 × 5 min), incubated with HRP-conjugated secondary antibody for 1 h at room temperature, washed again, and then exposed by chemiluminescence method using the enhanced ECL immunoblotting system (Tanon, Shanghai, China). All the experiments were repeated in triplicate. Blot bands were quantified by densitometry using Image J software v1.51.

[3] = In vivo PK study in mice; settings: mice;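 note: mice dosed intravenously or orally, three animals per time point, plasma drug levels quantified by LC-MS/MS, PK parameters derived by noncompartmental analysis in Phoenix WinNonLin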
Method: The mice were separately administered to a group of three mice per time point for intravenous (5 mg/kg) or oral administration (5 mg/kg). […] Then the samples were separated by centrifugation and analyzed by LC-MS/MS (XEVO TQ-S) to determine the plasma drug concentrations. The PK parameters were calculated using the noncompartment model with Phoenix WinNonLin v8.0. The animal experimental procedures were approved by the Medicine Research Ethics Committee of Hangzhou Leading Pharmatech Co., Ltd.

[4] = target: T1, JAK2 (Homo sapiens, UniProt O60674); assay: JAK2 enzyme assay (Z'-LYTE kinase assay kit); assay type: biochemical
T1 construct: 0.05–0.42 ng JAK2, 2 μM peptide substrate (Tyr06)
T1 sequence (O60674 whole entry): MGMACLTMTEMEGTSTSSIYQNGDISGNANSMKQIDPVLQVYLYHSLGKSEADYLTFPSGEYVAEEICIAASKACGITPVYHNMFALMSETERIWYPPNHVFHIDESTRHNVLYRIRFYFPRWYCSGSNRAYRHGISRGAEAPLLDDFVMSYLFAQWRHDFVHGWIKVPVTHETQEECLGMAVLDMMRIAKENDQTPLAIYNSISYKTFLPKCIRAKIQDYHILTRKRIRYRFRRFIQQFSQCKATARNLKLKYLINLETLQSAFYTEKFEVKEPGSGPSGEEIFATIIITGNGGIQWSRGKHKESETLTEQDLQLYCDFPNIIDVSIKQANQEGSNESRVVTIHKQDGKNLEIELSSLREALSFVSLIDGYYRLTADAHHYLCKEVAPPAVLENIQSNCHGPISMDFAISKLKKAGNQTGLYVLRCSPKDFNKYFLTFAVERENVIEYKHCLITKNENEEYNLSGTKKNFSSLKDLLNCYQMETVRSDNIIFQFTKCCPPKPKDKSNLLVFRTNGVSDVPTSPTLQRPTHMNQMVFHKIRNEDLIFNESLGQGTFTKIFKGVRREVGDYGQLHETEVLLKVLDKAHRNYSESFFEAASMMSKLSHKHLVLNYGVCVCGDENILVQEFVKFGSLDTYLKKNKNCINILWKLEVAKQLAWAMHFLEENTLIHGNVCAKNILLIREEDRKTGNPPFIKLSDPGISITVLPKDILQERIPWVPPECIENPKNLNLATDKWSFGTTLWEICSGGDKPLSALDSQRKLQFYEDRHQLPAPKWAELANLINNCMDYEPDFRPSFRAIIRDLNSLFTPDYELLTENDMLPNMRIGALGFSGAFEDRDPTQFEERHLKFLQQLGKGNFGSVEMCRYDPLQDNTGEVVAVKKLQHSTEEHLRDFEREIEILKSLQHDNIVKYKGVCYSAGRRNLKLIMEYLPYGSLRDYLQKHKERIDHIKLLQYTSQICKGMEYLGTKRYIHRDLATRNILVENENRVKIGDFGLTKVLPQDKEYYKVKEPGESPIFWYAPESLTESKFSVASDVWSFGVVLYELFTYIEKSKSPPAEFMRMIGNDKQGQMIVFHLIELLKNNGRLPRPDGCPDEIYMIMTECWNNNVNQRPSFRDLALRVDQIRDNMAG
Method: JAK kinase activity assays were performed using Z’-LYTETM kinase assay kit (Life Technologies, pv4122). […] The mixture was added into the 384-well microplate, shaken gently, and then incubated at room temperature for 1 h. Subsequently, 5 μL development solution was added to the well for incubating another 1 h. Finally, 5 μL stop reagent was added to stop the reaction. […] IC50 values were calculated using GraphPad Prism v8.0.3, and three parallel experiments were performed.

[5] = system: SET-2 cells; assay: Cell proliferation assay (CCK-8), SET-2 cells; assay type: cell-based, human; settings: for Inhibition (%): single wells, replicates 1 and 2
Method: as §1

SMILES: Cc1cnc2nc1Nc1cccc(c1)COCc1cc(ccc1OCCN1CCCC1)N2 [Compound 1]
- Inhibition (%) ([1]; HEL cell lines, 0.0977 μM): 2.2777% and 0.5143% and -1.6899% and 3.096% and 4.826% and 5.277%
- Inhibition (%) ([1]; HEL cell lines, 0.1953 μM): 5.8046% and 4.8494% and 8.1558% and 6.255% and 8.812% and 5.578%
- Inhibition (%) ([1]; HEL cell lines, 0.3906 μM): 18.9566% and 20.0588% and 8.5966% and 7.458% and 10.165% and 8.511%
- Inhibition (%) ([1]; HEL cell lines, 0.7813 μM): 26.0838% and 31.3005% and 30.4188% and 11.594% and 18.814% and 14.151%
- Inhibition (%) ([1]; HEL cell lines, 1.5625 μM): 34.0926% and 44.3057% and 45.4813% and 25.056% and 31.900% and 30.547%
- Inhibition (%) ([1]; HEL cell lines, 3.1250 μM, 3.125 µM): 46.4364% and 51.6532% and 53.8575% and 56.869% and 60.404% and 60.629%
- Inhibition (%) ([1]; HEL cell lines, 6.2500 μM, 6.25 µM): 64.2910% and 65.8339% and 68.7730% and 85.974% and 88.155% and 87.628%
- Inhibition (%) ([1]; HEL cell lines, 12.5000 μM, 12.5 µM): 80.4555% and 78.6187% and 81.4842% and 94.397% and 94.999% and 94.924%
- IC50 ([1]; HEL cell lines, mean of 2 replicates, read-out: IC50/μM mean, cellular antiproliferative activity): 2.41 µM
- IC50 ([1]; HEL cell lines, mean ± sd of 2 replicates, read-out: IC50/μM mean ± sd, cellular antiproliferative activity): 2.41 ± 0.2 µM
- IC50 ([1]; HEL cell lines, single-replicate fits, read-out: IC50/μM (individual replicates), cellular antiproliferative activity): 2.27 µM and 2.55 µM
- IC50 ([1]; HEL cells, 72 h, mean ± SD, read-out: Cellular Antiproliferative Activity (IC50) HEL): 2.41 ± 0.2 µM
- activation of downstream signaling molecule STAT3 and STAT5 [2]: significantly inhibited
- phosphorylation of JAK2 at Y1007/8 site [2]: increased
- phosphorylation of JAK2 at Y221 site ([2]; dose-dependent): efficiently blocked
- AUCinf ([3]; iv (5 mg/kg)): 752.47 ng·h/mL
- Cmax ([3]; iv (5 mg/kg)): 76.57 ng/mL
- T1/2 ([3]; iv (5 mg/kg)): 5.35 h
- Tmax ([3]; iv (5 mg/kg)): 4.00 h
- AUCinf ([3]; po (5 mg/kg)): 106.00 ng·h/mL
- Cmax ([3]; po (5 mg/kg)): 10.35 ng/mL
- T1/2 ([3]; po (5 mg/kg)): 4.47 h
- Tmax ([3]; po (5 mg/kg)): 6.00 h
- F (bioavailability) ([3]; po (5 mg/kg) vs iv (5 mg/kg)): 14.1%
- IC50 ([4]; JAK2, 25 μM ATP, mean ± SD, n = 3, read-out: Enzyme Inhibitory Activity (IC50)): 0.07 µM
- IC50 ([4]; JAK2 enzyme, mean of 3 replicates, read-out: IC50/μM mean, enzyme inhibitory activity): 0.07 µM
- IC50 ([4]; JAK2 enzyme, mean ± SD of 3 replicates, read-out: IC50/μM mean ± SD, enzyme inhibitory activity): 0.07 ± 0.006 µM
- IC50 ([4]; JAK2 enzyme, single-replicate fits (replicates 1-3), read-out: IC50/μM (individual replicates), enzyme inhibitory activity): 0.072 µM and 0.064 µM and 0.075 µM
- Inhibition (%) ([5]; SET-2 cell lines, 0.0977 μM): 5.3742% and 3.7022% and -1.2341% and 4.261% and 8.580% and 6.307%
- Inhibition (%) ([5]; SET-2 cell lines, 0.1953 μM): 7.5239% and 7.2850% and 0.8360% and 9.148% and 16.307% and 12.784%
- Inhibition (%) ([5]; SET-2 cell lines, 0.3906 μM): 10.3105% and 11.0271% and 3.0653% and 12.898% and 19.375% and 18.352%
- Inhibition (%) ([5]; SET-2 cell lines, 0.7813 μM): 17.3965% and 16.7596% and 8.4793% and 17.557% and 26.420% and 24.261%
- Inhibition (%) ([5]; SET-2 cell lines, 1.5625 μM): 26.9506% and 28.1449% and 22.3328% and 35.966% and 41.989% and 43.580%
- Inhibition (%) ([5]; SET-2 cell lines, 3.1250 μM, 3.125 µM): 60.6290% and 56.0111% and 56.4092% and 69.034% and 74.716% and 74.943%
- Inhibition (%) ([5]; SET-2 cell lines, 6.2500 μM, 6.25 µM): 97.5717% and 97.1736% and 97.3328% and 98.920% and 99.830% and 100.398%
- Inhibition (%) ([5]; SET-2 cell lines, 12.5000 μM, 12.5 µM): 96.8551% and 96.6959% and 97.3328% and 99.716% and 100.170% and 100.398%
- IC50 ([5]; SET-2 cell lines, mean of 2 replicates, read-out: IC50/μM mean, cellular antiproliferative activity): 1.64 µM
- IC50 ([5]; SET-2 cell lines, mean ± sd of 2 replicates, read-out: IC50/μM mean ± sd, cellular antiproliferative activity): 1.64 ± 0.03 µM
- IC50 ([5]; SET-2 cell lines, single-replicate fits, read-out: IC50/μM (individual replicates), cellular antiproliferative activity): 1.62 µM and 1.66 µM
- IC50 ([5]; SET-2 cells, 72 h, mean ± SD, read-out: Cellular Antiproliferative Activity (IC50) SET-2): 1.64 ± 0.03 µM
